One test deals with MDA-MB-468 (Her2-). Nature of the test: In vitro cytotoxicity (Cell Titer-Glo, 120 hrs) on MDA-MB-468 cells. In kind it is cell-based. The note with it: Homo sapiens, Table 6, Experiment #2, read-out: Cell Killing on MDA-MB-468 (Her2-) EC50. From the text:
(§1) FOLR1-positive KB or Igrov1 cells, FOLR1-negative A549 cells, Her2 positive SKBR3 cells and Her2 negative MDA-MB-468 cells, Muc16-positive OVCAR3 and Mucl6-negative Skov3 were maintained in Ham's F-12: high glucose DMEM (50:50) (Corning) supplemented with 10% heat-inactivated fetal bovine serum (Corning), 1% Penicillin/Streptomycin (Corning) and 2 mmol/L-glutamax (Thermo Fisher Scientific). Adherent cells were washed twice with PBS, harvested with Acutase and counted by the Vi-CELL cell viability analyzer. A total of 625 cells were seeded in each well of a 384-well flat bottom white polystyrene plate. ADC, ISAC, and iADC conjugates were formulated at 2-fold starting concentration in the cell culture medium and filtered through MultiScreenHTS 96-Well Filter Plates (Millipore; Billerica, Mass.). Serial dilutions of test samples (1:3 serial dilution starting from 100 nM) was added into treatment wells. Assay plates were cultured at 37° C. in a CO2 incubator for 120 hrs before assay. For cell viability measurement, 30 μL of Cell Titer-Glo® reagent (Promega Corp. Madison, Wis.) was added into each well, and plates were processed as per product instructions. Relative luminescence was measured on an ENVISION® plate reader (Perkin-Elmer; Waltham, Mass.). Relative luminescence readings were converted to percent viability using untreated cells as controls. […]

In a further test the test system is Skov3 (Muc16−). Nature of the test: In vitro cytotoxicity (Cell Titer-Glo, 120 hrs) on Skov3 cells. In kind it is cell-based. The following applies: Homo sapiens, SK-OV-3, Table 7, Experiment #2, read-out: Cell Killing on Skov3 (Muc16−) EC50.
Excerpt: as §1
A general note: ATP-based viability assays read luminescence as a measure of living cells.

Another test relates to SKBR3 (Her2+). Nature of the test: In vitro cytotoxicity (Cell Titer-Glo, 120 hrs) on SKBR3 cells. The test is classed as cell-based. The following applies: Homo sapiens, SK-BR-3, Table 6, Experiment #2, read-out: Cell Killing on SKBR3 (Her2+) EC50.
Excerpt: as §1

For a further test, the system named is FolR1 + Igrov1 Cells. Nature of the test: In vitro cytotoxicity (Cell Titer-Glo, 120 hrs) on Igrov1 cells. In kind it is cell-based.
Excerpt: as §1

The subject of the next test is KB (FolR1+). Nature of the test: In vitro cytotoxicity (Cell Titer-Glo, 120 hrs) on KB cells. In kind it is cell-based. The following applies: Homo sapiens, Table 21, Example 28, homogeneous iADCs.
Excerpt: as §1

A further test relates to B cells. Nature of the test: Immune cell activation in PBMCs with KB cells: B cells (CD86 on CD14-/Lin+/HLA-DR+ cells). In kind it is cell-based, human. The note with it: Example 29; PBMCs from two donors with KB cells, two days. The method, then:
(§2) This example evaluates the ability of three homogeneous iADCs to stimulate the activation of different immune cell populations (monocyte, B cell, and DCs). Free TLR7 agonists, free hemiasterlin warhead, anti-FolRα-ADC, and the corresponding ISACs were used as controls in the experiment. PBMCs from two healthy donors were isolated using similar protocol as descripted in previous examples. PBMCs were treated with three homogeneous iADC and controls in the presence of FolR1 positive KB cells for two days. The immune cells were then stained with different cell population markers and activation markers. Monocyte activation was indicated as increase of CD86 expression on CD14+ cells. B cell activation was indicated as increase of CD86 expression on CD14-/Lin+/HLA-DR+ cells. Dendritic cells (DC) activation was indicated as increase of CD86 expression on CD14-/Lin-/HLA-DR+/CD123+ cells.

The next test relates to A549 (FolR1−). Kind of test: In vitro cytotoxicity (Cell Titer-Glo, 120 hrs) on A549 cells. In kind it is cell-based. The following applies: Homo sapiens, Table 21, Example 28, homogeneous iADCs.
Excerpt: as §1

Another test deals with monocytes. Nature of the test: Immune cell activation in PBMCs with KB cells: monocytes (CD86 on CD14+ cells). The test is classed as cell-based, human. The note with it: Example 29; PBMCs from two donors with KB cells, two days. The method, then: as §2
A further test has as its system Dendritic cells (DC). Kind of test: Immune cell activation in PBMCs with KB cells: DCs (CD86 on CD14-/Lin-/HLA-DR+/CD123+ cells). The test is classed as cell-based, human. The note with it: Example 29; PBMCs from two donors with KB cells, two days. As to the method:
as §2

The test system of the next test is monocytes in human PBMCs. Kind of test: Monocyte activation (% CD86+ within CD14+) in isolated monocytes or PBMCs co-cultured with FolR1 positive KB cells. The following applies: 48 hr co-culture with FolR1 positive KB cells. The test is classed as cell-based. The method, then: PBMCs were isolated from human blood donors by Leukosep tube and Nycoprep 1.077 buffer according to the manufacture's recommendation. CD14+ monocytes were isolated by immunomagnetic negative selection from fresh PBMCs (StemCell #19359—EasySep Human Monocyte Isolation Kit). PBMCs and monocytes were cultured in RPMI supplemented with 10% heat-inactivated fetal bovine serum from Hyclone, 1% Penicillin/Streptomycin and 2 mmol/L-glutamax before the assay. On the day of assay, 300,000 of PBMC or 30,000 of monocytes in 40 ul of culture medium were seeded in 96-well cell culture plates. 40 ul of the test articles (formulated at 3× of starting concentration, 1:10 serial dilution) and 40 ul of 10,000 Oregon green stained target cells were then added into the well. The cell mixtures were co-cultured in the presence of test articles and 10 ug/ml LPS-RS for 48 hr. […] Cells were washed, fixed with 2% PFA overnight, and read on the Attune NxT cytometer (Thermo Fisher). […]
PBMCs were isolated from human blood donors by Leukosep tube and Nycoprep 1.077 buffer according to the manufacture's recommendation. […] Cells were washed, fixed with 2% PFA overnight, and read on the Attune NxT cytometer (Thermo Fisher). […]

Molecules are shown by their SMILES. pEC50: −log10 of the molar value. Where two headings read alike, the source gives them in different places.

For the compound `CCCCc1nc2c(N)nc3ccccc3c2n1Cc1ccc(CN)cc1` [Compound 4], the pEC50 in the test with MDA-MB-468 (Her2-) was less than 7.00; in the test on Skov3 (Muc16−), less than 7.00; in the test with SKBR3 (Her2+) it was less than 7.00; with FolR1 + Igrov1 Cells (Homo sapiens, IGROV-1, 120 h, read-out: Cell Killing on FolR1 + Igrov1 Cells EC50) it was less than 7.00.

Consider `CCCCCNc1nc(N)nc2ccn(Cc3ccc(CN4CC5(CNCCO5)C4)cc3OC)c12` [Compound 7, 5-(4-((5-oxa-2,8-diazaspiro[3.5]nonan-2-yl)methyl)-2-methoxybenzyl)-N4-pentyl-5H-pyrrolo[3,2-d]pyrimidine-2,4-diamine], for which the pEC50 with KB (FolR1+) and with A549 (FolR1−) was less than 7.00 throughout. In addition, the “activation of B cells, in words” value with B cells was “much more potent”. For the same compound, the “activation of monocytes, in words” value in the test on monocytes is given as “much more potent”. For the same compound, the “activation of DCs, in words” value in the test on Dendritic cells (DC) is recorded as “much more potent”.

As to `CCCCc1nc2c(N)nc3ccccc3c2n1OCCCCN` [Compound 5], the pEC50 with FolR1 + Igrov1 Cells (Experiment #1, 120 hrs, NK = no cell killing detected) is less than 7.00.

`CCCCc1nc2c(N)nc3ccccc3c2n1Cc1ccc(CNC(=O)OCc2ccc(NC(=O)[C@H](CCCNC(N)=O)NC(=O)[C@@H](NC(=O)CCOCCOCCOCCOCCNC(=O)CCC(=O)N3Cc4ccccc4C#Cc4ccccc43)C(C)C)cc2)cc1` [Compound 401]: the “monocyte activation, in words” value with monocytes in human PBMCs was “activated monocyte”.

Usually pEC50 stands for the negative decadic logarithm of the EC50, by convention in mol/L.

(Values after patent publication US11744876B2, “Immunomodulator antibody drug conjugates and uses thereof” (Sutro Biopharma, Inc., priority 2019, dated 2023).)
